From paper PMC6891315, “Synthesis of Novel Farnesoid X Receptor Agonists and Validation of Their Efficacy in Activating Differentiation of Mouse Bone Marrow-Derived Mesenchymal Stem Cells into Osteoblasts” (Molecules, 2019)

How the values were obtained:
FXR = conditions: cited from earlier work
LXRα = biological target: T1, LXRα (Homo sapiens, UniProt Q13133); experiment: LXRα response element-driven luciferase reporter assay in COS-7 cells; conditions: 1 μM
T1 sequence (Q13133 1-447): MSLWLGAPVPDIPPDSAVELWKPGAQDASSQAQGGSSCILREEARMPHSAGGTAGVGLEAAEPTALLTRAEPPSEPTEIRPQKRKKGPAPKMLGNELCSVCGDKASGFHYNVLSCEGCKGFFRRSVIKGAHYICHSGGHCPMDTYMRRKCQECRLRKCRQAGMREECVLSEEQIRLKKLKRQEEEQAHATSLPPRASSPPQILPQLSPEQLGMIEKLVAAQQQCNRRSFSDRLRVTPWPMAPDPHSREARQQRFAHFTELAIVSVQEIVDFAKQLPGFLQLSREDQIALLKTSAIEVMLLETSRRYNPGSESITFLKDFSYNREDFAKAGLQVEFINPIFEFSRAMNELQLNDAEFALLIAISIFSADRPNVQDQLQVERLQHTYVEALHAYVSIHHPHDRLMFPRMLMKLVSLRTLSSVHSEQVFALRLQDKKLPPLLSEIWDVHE
Procedure: Luciferase reporter assay was performed as described previously [53]. Briefly, human hepatoma Huh-7 (for FXR, RARα, and RXRα), transformed African green monkey kidney fibroblast COS-7 (for LXRα/β and PPARα/γ/δ), or human embryonic kidney HEK293 (for VDR and TGR5) cells were transfected with each of plasmids for nuclear receptor and nuclear receptor-response element-driven luciferase gene. […] The luciferase activity was measured as described previously [53].

[1] = test system: RUNX2, COL1A1 and OCN gene expression in ST-2 MSCs; experiment: qPCR of osteogenic genes (RUNX2, COL1A1, OCN) during osteoblast differentiation; type: cell-based, mouse; conditions: for expression of RUNX2, COL1A1 and OCN genes: with BMP-2 50 ng/mL, 10 μM CDCA, 5 μM GW4064, 5 μM 3 or 4, vs BMP-2-treated cells
Procedure: (§1) Mouse ST-2 MSCs were obtained from RIKEN BioResource Research Center (Tsukuba, Japan) and cultured in RPMI-1640 medium (Sigma) containing 10% (v/v) fetal calf serum and antibiotics (100 units/mL penicillin and 100 μg/mL streptomycin; Nacalai Tesque) at 37 °C in an atmosphere of 5% CO2. The ST-2 MSCs were allowed to differentiate into osteoblasts for 6 or 12 days in RPMI-1640 medium with BMP-2 (50 ng/mL). The medium was changed every 3 days.
(§2) RNAiso Plus was used to isolate total RNA (Takara-Bio, Kyoto, Japan). Subsequently total RNA (1 μg) was reverse-transcribed to cDNAs using ReverTra Ace reverse transcriptase (Toyobo, Osaka, Japan) and random hexamer (Takara-Bio). Thereafter, the mRNA levels were determined by qPCR analysis using a Power SYBR Green Master Mix (Thermo Fisher Scientific) in an Applied Biosystems 7500 Real Time PCR System (Thermo Fisher Scientific). The relative mRNA expression levels were determined using the 2^−ΔΔCT method and normalized to that of glyceraldehyde-3-phosphate dehydrogenase (GAPDH).

[2] = test system: FXR, BSEP and SHP gene expression in ST-2 MSCs; experiment: qPCR of FXR and FXR-target genes (BSEP, SHP) during osteoblast differentiation; type: cell-based, mouse; conditions: for mRNA expression level of FXR: with BMP-2 50 ng/mL, 6 and 12 days, 10 μM CDCA, 5 μM GW4064, 5 μM 3 or 4, vs BMP-2-treated cells
Procedure: as §1, §2

ST-2 MSCs [3] = experiment: Cell toxicity (WST, Cell Counting Kit-8) assay; type: cell-based, mouse; conditions: 12 days; 0–10 μM CDCA, 0–5 μM GW4064, 0–5 μM 3 or 4
Procedure: The cells were washed twice with PBS, and cell viability was determined using Cell Counting Kit-8 (Dojindo Molecular Technologies, Kumamoto, Japan) according to the protocols provided by the supplier. The cell viability (%) was shown relative to the vehicle-treated cells (0 μM).

ST-2 MSCs [4] = experiment: ALP staining and ALP activity in BMP-2-induced osteoblast differentiation; type: cell-based, mouse; conditions: for staining and activity of ALP: with BMP-2 50 ng/mL, 6 or 12 days, 10 μM CDCA, 5 μM GW4064, 5 μM 3 or 4, vs BMP-2-treated cells
Procedure: as §1
The ST-2 MSCs were allowed to differentiate into osteoblasts for 12 days in RPMI-1640 medium with BMP-2 (50 ng/mL) and one of FXR agonists together with or without GS (25 μM). Then, the cells were washed twice with PBS and fixed with 10% (v/v) formaldehyde in PBS at 25 °C for 10 min. The cells were again washed with PBS, and incubated with the staining solution (0.1 mg/mL naphthol AS-MX phosphate and 0.6 mg/mL Fast-blue BB salt in 0.1 M Tris-Cl, pH 8.8) at 25 °C for 30 min. After removing the staining solution, the cells were washed with PBS and visualized under a microscope (CKX-41, Olympus, Tokyo, Japan).
The ALP activity was measured using LabAssay ALP (FUJIFILM Wako Pure Chemical) according to the manufacturer’s protocols. Protein concentrations were measured using a Pierce BCA Protein Assay Kit (Thermo Fisher Scientific).

[5] = test system: ALP gene expression in ST-2 MSCs; experiment: qPCR of ALP gene during osteoblast differentiation; type: cell-based, mouse; conditions: for ALP gene expression (mRNA level): with BMP-2 50 ng/mL, 6 or 12 days, 10 μM CDCA, 5 μM GW4064, 5 μM 3 or 4, vs BMP-2-treated cells
Procedure: as §1, §2

Structure (SMILES) | expression of RUNX2, COL1A1 and OCN genes ([1]; 6 days) | mRNA expression level of FXR [2] | cytotoxicity (cell viability, WST assay) (ST-2 MSCs [3]) | staining and activity of ALP (ST-2 MSCs [4]) | ALP gene expression (mRNA level) [5] | further results
CC[C@H]1[C@@H](O)[C@@H]2[C@H](CC[C@]3(C)[C@@H]([C@H](C)CCC(=O)O)CC[C@@H]23)[C@@]2(C)CC[C@@H](O)C[C@@H]12 [6-ECDCA, 6α-ethylchenodeoxycholic acid] | – | – | – | – | – | potency relative to CDCA (FXR): about 100 fold
CC(C)c1onc(-c2c(Cl)cccc2Cl)c1COc1ccc(-c2nc3cc(C(=O)O)ccc3n2C)cc1 [FXR agonist 2] | – | – | – | – | – | LXRα-response element-driven luciferase activity (LXRα): increased
CC(C)c1onc(-c2c(Cl)cccc2Cl)c1COc1ccc(/C=C/c2cccc(C(=O)O)c2)c(Cl)c1 [GW4064] | further enhanced | elevated | No cytotoxicity | elevated | elevated | –
CC(C)c1onc(-c2c(Cl)cccc2Cl)c1COc1ccc(-c2nc3ccc(C(=O)O)cc3n2C)cc1Cl [FXR agonist 3] | elevated | elevated | No cytotoxicity | enhanced | enhance | increase of RUNX2, COL1A1 and OCN expression compared with GW4064 ([1]; 6 days, 5 μM, with BMP-2): comparable to that of GW4064; ability to enhance ALP staining and activity compared with GW4064 (ST-2 MSCs [4]; 6- or 12-days-differentiated ST-2 MSCs, 5 μM): comparable to that of GW4064; ability to enhance ALP gene expression compared with GW4064 ([5]; 5 μM, with BMP-2): comparable to that of GW4064
C[C@H](CCC(=O)O)[C@H]1CC[C@H]2[C@@H]3[C@H](O)C[C@@H]4C[C@H](O)CC[C@]4(C)[C@H]3CC[C@]12C [CDCA, chenodeoxycholic acid] | further enhanced | elevated | No cytotoxicity | elevated | elevated | –
CC(C)c1onc(-c2c(Cl)cccc2Cl)c1COc1ccc(-c2nc3ccc(C(=O)O)cc3n2C)c(Cl)c1 [FXR agonist 4, 2-[2-Chloro-4-[[3-(2,6-dichlorophenyl)-5-isopropyl-isoxazol-4-yl]methoxy]phenyl]-3-methyl-benzimidazole-5-carboxylic acid] | elevated | elevated | No cytotoxicity | enhanced | enhance | –
C/C=C1\C(=O)C[C@H]2[C@@H]3CCC4=CC(=O)CC[C@]4(C)[C@H]3CC[C@]12C [GS, (Z)-guggulsterone] | – | – | – | – | – | effect on novel FXR agonist-induced expression of osteogenic genes ([1]; co-treatment with 25 μM GS): repressed; effect on FXR agonist-induced BSEP and SHP expression ([2]; co-treatment with 25 μM GS): suppressed; effect on FXR agonist-induced FXR gene expression ([2]; co-treatment with 25 μM GS): repressed; effect on FXR agonist-induced staining and activity of ALP (ST-2 MSCs [4]; co-treatment with 25 μM GS): suppressed; effect on FXR agonist-induced ALP gene expression ([5]; co-treatment with 25 μM GS): repressed
CC(C)c1onc(-c2c(Cl)cccc2Cl)c1COc1ccc(-c2nc3ccc(C(=O)O)cc3n2C)cc1 [FXR agonist 1] | – | – | – | – | – | LXRα-response element-driven luciferase activity (LXRα): increased
